In patent publication US20230086702A1, “SUBSTITUTED 2-AMINO-PYRAZOLYL-[1,2,4]TRIAZOLO[1,5A]PYRIDINE DERIVATIVES AND USE THEREOF” (The Johns Hopkins University, priority 2019, published 2023):

What was measured:
DLK = biological target: T1, DLK (Homo sapiens, UniProt Q12852); assay: DLK biochemical assay (TR-FRET, MKK7 phosphorylation); details: DLK catalytic domain, MKK7 substrate, 60 μM ATP
T1 construct: 10 nM DLK, catalytic domain, Carna Biosiences; purchased Carna Biosciences ('Carna Biosiences' [sic])
T1 sequence (Q12852 125-366 limits assumed): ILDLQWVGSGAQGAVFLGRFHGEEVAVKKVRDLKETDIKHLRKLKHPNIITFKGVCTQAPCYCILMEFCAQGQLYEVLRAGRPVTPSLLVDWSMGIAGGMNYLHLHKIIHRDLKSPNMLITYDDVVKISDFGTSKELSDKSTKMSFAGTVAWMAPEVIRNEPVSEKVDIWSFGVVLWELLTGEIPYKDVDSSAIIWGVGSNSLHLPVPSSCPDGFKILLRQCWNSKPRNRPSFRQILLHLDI
Protocol: (§1) DLK assay is a biochemical assay format designed to screen for inhibitors of DLK. Enzymatic activity of DLK is measured by monitoring phosphorylation of the physiological substrate MKK7 (MAP2K7, Dual specificity mitogen-activated protein kinase kinase 7). Phosphorylation is detected by a TR-FRET system whereby His-tagged MKK7 is labeled by a XL665-labeled anti-His antibody (FRET acceptor, emission 665 nm). DLK phosphorylates MKK7 at T275/S277, which is detected by an Eu-labeled anti-phospho-MKK7 (T275/S277) antibody (FRET donor, excitation 340 nm). Phosphorylation of MKK7 results in an increased TR-FRET signal (Ratio XL665-channel/Eu-channel) and inhibition of enzymatic activity of DLK decreases the TR-FRET signal.
All indicated concentrations are final concentrations.
(§2) Detection buffer: 25 mM Tris/HCl pH 7.5, 100 mM EDTA, 100 mM NaCl, 200 mM KF, 0.01% Tween 20, 1:500 Smart Block.

LZK = biological target: T2, LZK (Homo sapiens, UniProt O43283); assay: LZK biochemical assay (TR-FRET, MKK7 phosphorylation); details: LZK catalytic domain, MKK7 substrate, 15 μM ATP
T2 construct: 10 nM LZK, catalytic domain, Carna Biosiences in assay buffer; purchased Carna Biosciences ('Carna Biosiences' [sic])
T2 sequence (O43283 168-409 limits assumed): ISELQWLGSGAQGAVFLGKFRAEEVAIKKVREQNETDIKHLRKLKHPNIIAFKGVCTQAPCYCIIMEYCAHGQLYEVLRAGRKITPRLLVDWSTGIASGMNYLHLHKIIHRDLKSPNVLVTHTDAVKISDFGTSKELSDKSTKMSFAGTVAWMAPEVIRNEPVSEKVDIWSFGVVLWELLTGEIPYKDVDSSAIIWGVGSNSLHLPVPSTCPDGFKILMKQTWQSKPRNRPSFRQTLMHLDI
Protocol: as §1, with “LZK” for “DLK”, “LZK.” for “DLK.”, “T275/S277” for “T275/S277,”
All indicated concentrations final concentrations.
as §2

SMILES | IC50 (DLK) [nM] | IC50 (LZK) [nM]
CC[C@H](C)NC(=O)c1cc(-c2cnn(C(c3ccnc(C(F)(F)F)c3)C(C)C)c2)cn2nc(N)nc12 (mixture of isomers) [Example I-91, 2-Amino-N-[(2S)-butan-2-yl]-6-(1-{2-methyl-1-[2-(trifluoromethyl)pyridin-4-yl]propyl}-1H-pyrazol-4-yl)[1,2,4]triazolo[1,5-a]pyridine-8-carboxamide] | 2.9 | 15
CC[C@H](C)NC(=O)c1cc(-c2cnn(C(c3c(F)cncc3F)C(C)C)c2)cc2nc(N)nn12 (mixture of isomers) [Example I-123, 2-Amino-N-[(2S)-butan-2-yl]-7-{1-[1-(3,5-difluoropyridin-4-yl)-2-methylpropyl]-1H-pyrazol-4-yl}[1,2,4]triazolo[1,5-a]pyridine-5-carboxamide] | 5.9 | 170
CC[C@H](C)NC(=O)c1cc(-c2cnn(C(c3ccnc(OC)c3)C(C)C)c2)cc2nc(N)nn12 (mixture of isomers) [Example I-126, 2-Amino-N-[(2S)-butan-2-yl]-7-{1-[1-(2-methoxypyridin-4-yl)-2-methylpropyl]-1H-pyrazol-4-yl}[1,2,4]triazolo[1,5-a]pyridine-5-carboxamide] | 0.2 | 1.3
CCC(c1ccc(Cl)s1)n1cc(-c2cc(C(=O)N[C@@H](C)CC)c3nc(N)nn3c2)cn1 (mixture of isomers) [Example I-129, 2-Amino-N-[(2S)-butan-2-yl]-6-{1-[1-(5-chloro-2-thienyl)propyl]-1H-pyrazol-4-yl}[1,2,4]triazolo[1,5-a]pyridine-8-carboxamide] | 3.4 | 39
C[C@@H](CF)NC(=O)c1cc(-c2cnn(C3CCOc4ccccc43)c2)cn2nc(N)nc12 (mixture of isomers) [Example I-143, 2-Amino-6-{1-[3,4-dihydro-2H-1-benzopyran-4-yl]-1H-pyrazol-4-yl}-N-[1-fluoropropan-2-yl][1,2,4]triazolo[1,5-a]pyridine-8-carboxamide] | 33 | 15
CC(CF)NC(=O)c1cc(-c2cnn(C3CCOc4ccccc43)c2)cn2nc(N)nc12 (mixture of isomers) [Example I-144, 2-Amino-6-{1-(3,4-dihydro-2H-1-benzopyran-4-yl)-1H-pyrazol-4-yl}-N-[1-fluoropropan-2-yl][1,2,4]triazolo[1,5-a]pyridine-8-carboxamide] | 84 | 79
CCC(c1ccc(C(F)(F)F)nc1)n1cc(-c2cc(C(=O)NC(C)CF)c3nc(N)nn3c2)cn1 (mixture of isomers) [Example I-147] | 3.9 | 25
CC[C@@H](c1ccc(F)cc1)n1cc(-c2cc(C(=O)NC(C)CF)n3nc(N)nc3c2)cn1 (mixture of isomers) [Example I-148, 2-Amino-7-{1-[(1S)-1-(4-fluorophenyl)propyl]-1H-pyrazol-4-yl}-N-(1-fluoropropan-2-yl)[1,2,4]triazolo[1,5-a]pyridine-5-carboxamide] | 1.6 | 32

The remaining lines, values ahead:

IC50 (DLK) [nM] | IC50 (LZK) [nM] | SMILES
2 | 3.9 | CCC(c1ccc(C(F)F)nc1)n1cc(-c2cc(C(=O)N[C@@H](C)CC)n3nc(N)nc3c2)cn1 (mixture of isomers) [Example I-92, 2-Amino-N-[(2S)-butan-2-yl]-7-(1-{1-[6-(difluoromethyl)pyridin-3-yl]propyl}-1H-pyrazol-4-yl)[1,2,4]triazolo[1,5-a]pyridine-5-carboxamide]
1.5 | 4.7 | CC[C@H](C)NC(=O)c1cc(-c2cnn(C(c3ccc(C(F)F)nc3)C(C)C)c2)cc2nc(N)nn12 (mixture of isomers) [Example I-95, 2-Amino-N-[(2S)-butan-2-yl]-7-(1-{1-[6-(difluoromethyl)pyridin-3-yl]-2-methylpropyl}-1H-pyrazol-4-yl)[1,2,4]triazolo[1,5-a]pyridine-5-carboxamide]
8.6 | 7.3 | CC[C@H](C)NC(=O)c1cc(-c2cnn(C(c3ccc(C(F)F)nc3)C3CC3)c2)cc2nc(N)nn12 (mixture of isomers) [Example I-98, 2-Amino-N-[(2S)-butan-2-yl]-7-(1-{cyclopropyl[6-(difluoromethyl)pyridin-3-yl]methyl}-1H-pyrazol-4-yl)[1,2,4]triazolo[1,5-a]pyridine-5-carboxamide]
1.2 | 2.8 | CCC(c1ccc(C(F)(F)F)nc1)n1cc(-c2cc(C(=O)N[C@@H](C)CC)n3nc(N)nc3c2)cn1 (mixture of isomers) [Example I-101, 2-Amino-N-[(2S)-butan-2-yl]-7-(1-{1-[6-(trifluoromethyl)pyridin-3-yl]propyl}-1H-pyrazol-4-yl)[1,2,4]triazolo[1,5-a]pyridine-5-carboxamide]
1.3 | 2.9 | CC[C@H](C)NC(=O)c1cc(-c2cnn(C(c3ccc(C(F)(F)F)nc3)C(C)C)c2)cc2nc(N)nn12 (mixture of isomers) [Example I-104, 2-Amino-N-[(2S)-butan-2-yl]-7-(1-{2-methyl-1-[6-(trifluoromethyl)pyridin-3-yl]propyl}-1H-pyrazol-4-yl)[1,2,4]triazolo[1,5-a]pyridine-5-carboxamide]
1.7 | 3.5 | CC[C@H](C)NC(=O)c1cc(-c2cnn(C(c3ccc(C(F)(F)F)nc3)C3CC3)c2)cc2nc(N)nn12 (mixture of isomers) [Example I-107, 2-Amino-N-[(2S)-butan-2-yl]-7-(1-{cyclopropyl[6-(trifluoromethyl)pyridin-3-yl]methyl}-1H-pyrazol-4-yl)[1,2,4]triazolo[1,5-a]pyridine-5-carboxamide]
1.6 | 2.3 | CC[C@H](C)NC(=O)c1cc(-c2cnn(C(c3ccc(C(F)(F)F)nc3)C3CCOCC3)c2)cc2nc(N)nn12 (mixture of isomers) [Example I-110, 2-Amino-N-[(2S)-butan-2-yl]-7-(1-{tetrahydro-2H-pyran-4-yl[6-(trifluoromethyl)pyridin-3-yl]methyl}-1H-pyrazol-4-yl)[1,2,4]triazolo[1,5-a]pyridine-5-carboxamide]
5.4 | 12 | CCC(c1ccc(OCC(F)(F)F)nc1)n1cc(-c2cc(C(=O)N[C@@H](C)CC)n3nc(N)nc3c2)cn1 (mixture of isomers) [Example I-113, 2-Amino-N-[(2S)-butan-2-yl]-7-(1-{1-[6-(2,2,2-trifluoroethoxy)pyridin-3-yl]propyl}-1H-pyrazol-4-yl)[1,2,4]triazolo[1,5-a]pyridine-5-carboxamide]
8.2 | 68 | CC[C@H](C)NC(=O)c1cc(-c2cnn(C(c3ccc(OCC(F)(F)F)nc3)C(C)C)c2)cc2nc(N)nn12 (mixture of isomers) [Example I-116, 2-Amino-N-[(2S)-butan-2-yl]-7-(1-{2-methyl-1-[6-(2,2,2-trifluoroethoxy)pyridin-3-yl]propyl}-1H-pyrazol-4-yl)[1,2,4]triazolo[1,5-a]pyridine-5-carboxamide]
6.5 | 36 | CC[C@H](C)NC(=O)c1cc(-c2cnn(C(c3ccc(OCC(F)(F)F)nc3)C3CC3)c2)cc2nc(N)nn12 (mixture of isomers) [Example I-119, 2-Amino-N-[(2S)-butan-2-yl]-7-(1-{cyclopropyl[6-(2,2,2-trifluoroethoxy)pyridin-3-yl]methyl}-1H-pyrazol-4-yl)[1,2,4]triazolo[1,5-a]pyridine-5-carboxamide]
3.5 | 7.4 | CCC(c1ccnc(C(F)(F)F)c1)n1cc(-c2cc(C(=O)N[C@@H](C)CC)n3nc(N)nc3c2)cn1 (mixture of isomers) [Example I-122, 2-Amino-N-[(2S)-butan-2-yl]-7-(1-{1-[2-(trifluoromethyl)pyridin-4-yl]propyl}-1H-pyrazol-4-yl)[1,2,4]triazolo[1,5-a]pyridine-5-carboxamide]
